Experiments:
HUVEC = assay: In vitro flow chamber: T cell-rolling and adhesion on HUVEC, short-term conditions; format: cell-based, human
Protocol: Human brain microvascular endothelial cells (HBMEC) (#1000, Sciencell Research Laboratories) or human umbilical vein endothelial cells (HUVEC) (#C-12200, Promocell) were used as endothelial cell-model. Cryopreserved HBMEC at passage 1 (>5×10^5 cells/ml) were first cultivated in fibronectin-coated Nunclon-treated 75 cm^2 cell culture flasks (#156499, Nunc) at 37° C. and 5% CO2 in a Heraeus Cytoperm 2 (Thermo Scientific) according to the manufacturer's instructions. Sub-cultivation of HBMEC was done with the Detach Kit (#C-41200, Promocell) consisting of HEPES-buffered balanced salt solution (#C-40000, Promocell), trypsin-EDTA solution (0.04%/0.03%) (#C-41000, Promocell) and trypsin neutralization solution (TNS, #C-41100, Promocell). Briefly, the medium was aspirated from the HBMEC-layer and cells were washed with 2 ml of HEPES-buffered balanced salt solution. Addition of 2 ml of trypsin-EDTA solution for 1-5 min at room temperature led to detachment of HBMEC from the flask bottom. Inactivation of trypsin-EDTA solution was performed by addition of 2 ml of trypsin neutralization solution to the cell suspension. Cells were centrifuged at 300 g for 4 min in a Heraeus Megafuge 40 (Thermo Scientific) and seeded at a cell density of 5×10^5 cells per gelatin-coated 75 cm^2 cell culture flask (#L7230, Biochrom). […]

HBMEC = assay: In vitro flow chamber: T cell-rolling on HBMEC, long-term conditions; format: cell-based, human
Protocol: Human brain microvascular endothelial cells (HBMEC) (#1000, Sciencell Research Laboratories) or human umbilical vein endothelial cells (HUVEC) (#C-12200, Promocell) were used as endothelial cell-model. Cryopreserved HBMEC at passage 1 (>5×10^5 cells/ml) were first cultivated in fibronectin-coated Nunclon-treated 75 cm^2 cell culture flasks (#156499, Nunc) at 37° C. and 5% CO2 in a Heraeus Cytoperm 2 (Thermo Scientific) according to the manufacturer's instructions. Sub-cultivation of HBMEC was done with the Detach Kit (#C-41200, Promocell) consisting of HEPES-buffered balanced salt solution (#C-40000, Promocell), trypsin-EDTA solution (0.04%/0.03%) (#C-41000, Promocell) and trypsin neutralization solution (TNS, #C-41100, Promocell). Briefly, the medium was aspirated from the HBMEC-layer and cells were washed with 2 ml of HEPES-buffered balanced salt solution. Addition of 2 ml of trypsin-EDTA solution for 1-5 min at room temperature led to detachment of HBMEC from the flask bottom. Inactivation of trypsin-EDTA solution was performed by addition of 2 ml of trypsin neutralization solution to the cell suspension. Cells were centrifuged at 300 g for 4 min in a Heraeus Megafuge 40 (Thermo Scientific) and seeded at a cell density of 5×10^5 cells per gelatin-coated 75 cm^2 cell culture flask (#L7230, Biochrom). HBMEC for rolling and adhesion experiments were cultivated in RPMI 1640 medium (#FG1215, Biochrom) supplemented with Nu-Serum IV (10%) (#355505, BD Biosciences), dialyzed FBS (10%) (#SZ0115, Biochrom), MEM-vitamins (1%) (#K0373, Biochrom), L-glutamine (1%) (#K0283, Biochrom), sodium-pyruvate (1%) (#L0473, Biochrom), heparin (10 U/ml) (#L6510, Biochrom), and […] cell growth factor ECGS (30 μg/ml) (#02-102, Millipore). Cultivation of HUVEC was done in endothelial cell growth medium (#C-22010, Promocell) supplemented with dialyzed FBS (10%) (#SZ0115, Biochrom) using gelatin-coated 75 cm^2 cell culture flasks. Sub-cultivation of HUVEC was performed with the Detach Kit ([…], Promocell) and cells were seeded at a cell density of 4.0-7.5×10^5 cells per 75 cm^2 cell culture flask.
Isolation of human PBMC from blood was performed by modified density gradient centrifugation as described elsewhere. Briefly, 15-20 ml of freshly drawn heparinized blood was transferred in Biocoll (#L6115, Biochrom)-containing Leukosep tubes (#227290, Greiner bio-one) and centrifuged in a Hettich Rotanta 460 RS Type 5606 (Hettich Laborapparate) at 1066 g for 15 min. After removal of the plasma fraction the PBMC containing phase was transferred in a new tube and washed twice with FACS-buffer (D-PBS #L1820, 5% FBS #SO115, Biochrom). Erythrocyte lysis was performed with lysis buffer (8.29 g/l NH4Cl, 1.00 g/l KHCO3, 0.037 g/l EDTA) for 5 min at room temperature. For subsequent purification of untouched T cells the human Pan T cell-isolation Kit II (#130-091-156, Miltenyi Biotec) was used according to the manufacturer's instructions.
The ibidi Pump System (#10902, ibidi) was used for cultivation of endothelial cells under flow conditions as well as for performing adhesion and rolling assays of human T cells on endothelial cells. The system consists of the ibidi Pump (#10905, ibidi) and the ibidi Fluidic Unit (#10903, ibidi) which work together to generate a unidirectional flow of medium in an attached slide with a defined channel height. The system is controlled by the ibidi Pump Control software (#10908, notebook+software, ibidi). For cultivation of HBMEC or HUVEC under flow conditions, HBMEC or HUVEC were seeded at a cell density of 2.5×10^6 cells/ml into μ-slide I^0.4 Luer Collagen IV (#80172, ibidi) or μ-slide I^0.4 Luer ibiTreat (#80176, ibidi), respectively according to the manufacturer's instructions and cultivated with a perfusion set “yellow/green” (#10964, ibidi) for 48 h under wall shear stress of 5 or 10 dyn/cm^2, respectively. […]

Blinatumomab: recombinant CD19×CD3 bispecific scFv antibody consisting of four immunoglobulin variable domains assembled into a single polypeptide chain
mean rolling velocity±SD (HUVEC; T cells pre-incubated with 10 ng/ml Blinatumomab for 45 min, short-term (45 sec), 1 dyn/cm^2, control −AMG 103 283±82): 237±45 μm/sec | increase of number of T cells firmly adhering to HUVEC (HUVEC; pre-incubation with 10 ng/ml Blinatumomab, short-term conditions, vs −AMG 103): 2.6 fold | T cell-rolling velocity immediately after addition (HBMEC; 10 ng/ml Blinatumomab, 0 min, long-term): no decrease of T cell-rolling velocity was detectable | mean T cell-rolling velocity±SD (HBMEC; 10 ng/ml Blinatumomab, 45 min after addition, long-term, control −AMG 103 323±78): 209±40 μm/sec | mean T cell-rolling velocity±SD (HBMEC; histamine-stimulated HBMEC, +AMG 103 10 ng/ml, 45 min, control −AMG 103 430±92): 281±96 μm/sec | mean T cell-rolling velocity±SD (HBMEC; non-stimulated HBMEC (PPS experiment), +AMG 103 10 ng/ml, 40 min, control −AMG 103 399±153): 263±66 μm/sec | mean T cell-rolling velocity±SD (HBMEC; non-stimulated HBMEC (anti-CD11a experiment), +AMG 103 10 ng/ml, 10 min, control −AMG 103 304±40): 214 μm/sec | mean T cell-rolling velocity±SD (HBMEC; non-stimulated HBMEC (anti-CD162 experiment), +AMG 103 10 ng/ml, 45 min, control −AMG 103 539±149): 428±89 μm/sec | mean T cell-rolling velocity±SD (HBMEC; non-stimulated HBMEC (anti-ICAM-1 experiment), +AMG 103 10 ng/ml, 30 min, control −AMG 103 407±90): 335 μm/sec | mean T cell-rolling velocity±SD (HBMEC; non-stimulated HBMEC (anti-P-selectin experiment), +AMG 103 10 ng/ml, 40 min, control −AMG 103 449±90): 370±55 μm/sec | mean T cell-rolling velocity±SD (HBMEC; non-stimulated HBMEC (natalizumab experiment), +AMG 103 10 ng/ml, 40 min, control −AMG 103 482±149): 359±102 μm/sec | mean T cell-rolling velocity±SD (HBMEC; non-stimulated HBMEC (recombinant P-selectin experiment), +AMG 103 10 ng/ml, 45 min, control −AMG 103 386±77): 340±68 μm/sec

From patent publication US9688760B2, “Anti-leukocyte adhesion for the mitigation of potential adverse events caused by CD3-specific binding domains” (AMGEN RESEARCH (MUNICH) GMBH, priority 2013, dated 2017)
